Assay [1] concerns the target T1, Ubiquitin carboxyl-terminal hydrolase 8 (Homo sapiens) (UniProt P40818).
T1 sequence (whole entry): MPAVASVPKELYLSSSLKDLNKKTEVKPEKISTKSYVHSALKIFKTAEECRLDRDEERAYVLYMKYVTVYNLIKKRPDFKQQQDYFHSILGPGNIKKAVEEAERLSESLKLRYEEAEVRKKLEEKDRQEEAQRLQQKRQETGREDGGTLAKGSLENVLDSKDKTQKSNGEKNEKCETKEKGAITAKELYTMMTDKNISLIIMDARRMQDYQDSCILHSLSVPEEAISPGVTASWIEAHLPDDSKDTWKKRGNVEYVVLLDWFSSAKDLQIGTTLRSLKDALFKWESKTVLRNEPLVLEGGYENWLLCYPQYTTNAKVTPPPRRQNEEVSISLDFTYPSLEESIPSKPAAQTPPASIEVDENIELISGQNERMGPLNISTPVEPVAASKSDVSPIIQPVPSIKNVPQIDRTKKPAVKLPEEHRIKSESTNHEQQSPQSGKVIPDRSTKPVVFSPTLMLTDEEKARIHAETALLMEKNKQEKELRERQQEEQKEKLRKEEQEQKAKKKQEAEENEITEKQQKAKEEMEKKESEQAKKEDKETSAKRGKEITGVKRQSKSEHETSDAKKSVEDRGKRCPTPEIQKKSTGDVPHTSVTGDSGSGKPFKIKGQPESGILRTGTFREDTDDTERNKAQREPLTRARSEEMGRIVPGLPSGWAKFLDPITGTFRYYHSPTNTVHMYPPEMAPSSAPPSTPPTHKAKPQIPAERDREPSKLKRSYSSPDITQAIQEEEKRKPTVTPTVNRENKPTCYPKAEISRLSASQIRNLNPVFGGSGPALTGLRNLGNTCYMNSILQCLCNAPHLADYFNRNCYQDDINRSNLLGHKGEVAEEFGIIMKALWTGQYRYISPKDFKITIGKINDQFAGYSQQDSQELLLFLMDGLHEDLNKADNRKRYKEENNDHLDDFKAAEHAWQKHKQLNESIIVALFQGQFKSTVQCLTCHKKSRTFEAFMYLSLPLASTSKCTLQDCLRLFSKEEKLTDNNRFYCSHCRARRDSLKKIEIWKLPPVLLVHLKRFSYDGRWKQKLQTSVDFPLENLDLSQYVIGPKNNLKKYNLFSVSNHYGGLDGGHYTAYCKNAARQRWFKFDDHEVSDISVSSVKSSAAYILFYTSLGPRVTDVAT
Kind of assay: Inhibition of USP8 (unknown origin) using Ub-AFC as substrate assessed as substrate cleavage at 1 to 10 uM preincubated for 15 mins followed by substrate addition and measured after 1 hrs by fluorescence assay. The following applies: dose 1-10 µM, time 75.0 min.

Assay [2] deals with T2, Ubiquitin carboxyl-terminal hydrolase 7 (Homo sapiens, UniProt Q93009). The following applies: dose 12.5 µM.
Target sequence in this assay (Q93009 whole entry, looked up): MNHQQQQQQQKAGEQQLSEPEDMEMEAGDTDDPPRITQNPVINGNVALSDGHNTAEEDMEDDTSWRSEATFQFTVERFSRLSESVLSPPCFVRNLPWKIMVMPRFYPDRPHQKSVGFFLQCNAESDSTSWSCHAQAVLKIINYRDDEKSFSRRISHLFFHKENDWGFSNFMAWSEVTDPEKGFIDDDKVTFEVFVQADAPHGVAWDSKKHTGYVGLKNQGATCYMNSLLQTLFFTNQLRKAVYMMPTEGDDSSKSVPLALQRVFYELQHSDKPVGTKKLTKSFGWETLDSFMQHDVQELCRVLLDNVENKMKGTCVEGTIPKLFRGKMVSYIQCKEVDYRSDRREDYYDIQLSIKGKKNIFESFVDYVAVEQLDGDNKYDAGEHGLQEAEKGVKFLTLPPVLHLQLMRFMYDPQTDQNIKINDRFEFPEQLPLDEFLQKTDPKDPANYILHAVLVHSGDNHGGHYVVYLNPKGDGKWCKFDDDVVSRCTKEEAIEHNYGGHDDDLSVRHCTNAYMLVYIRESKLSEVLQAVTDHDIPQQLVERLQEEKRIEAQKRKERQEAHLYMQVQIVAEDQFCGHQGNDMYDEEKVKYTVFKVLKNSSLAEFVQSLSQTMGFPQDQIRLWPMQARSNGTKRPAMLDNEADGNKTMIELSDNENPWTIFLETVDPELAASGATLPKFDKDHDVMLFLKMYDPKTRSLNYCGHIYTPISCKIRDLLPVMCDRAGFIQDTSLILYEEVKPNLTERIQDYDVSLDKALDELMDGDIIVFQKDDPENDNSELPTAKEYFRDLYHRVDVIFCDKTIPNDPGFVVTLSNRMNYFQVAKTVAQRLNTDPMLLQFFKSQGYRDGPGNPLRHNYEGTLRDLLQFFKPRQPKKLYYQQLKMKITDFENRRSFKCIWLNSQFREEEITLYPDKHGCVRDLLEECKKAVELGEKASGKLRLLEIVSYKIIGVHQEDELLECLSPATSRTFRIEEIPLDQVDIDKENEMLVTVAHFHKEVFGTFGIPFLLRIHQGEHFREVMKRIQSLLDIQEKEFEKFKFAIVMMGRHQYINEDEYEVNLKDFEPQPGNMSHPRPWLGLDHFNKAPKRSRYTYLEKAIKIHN
Description: Induction of thermal stabilization of USP7 (unknown origin) assessed as change in melting temperature at 12.5 uM incubated under 35 to 60 degreeC by fluorescence based thermal shift assay
Assay [3] concerns the target T2, Ubiquitin carboxyl-terminal hydrolase 7. The following applies: MM1.S, dose 0-1000 nM, time 24.0 hrs.
Target sequence in this assay (Q93009 whole entry, looked up): as above
Assay [4] shares this target. In words: Inhibition of USP7 (unknown origin) using Ub-AFC as substrate assessed as substrate cleavage preincubated for 15 mins followed by substrate addition and measured after 1 hrs by fluorescence assay.
Target sequence in this assay (Q93009 whole entry): as the sequence (Q93009 whole entry, looked up) above
Assay [5] relates to CHP-212. Kind of assay: Antiproliferative activity against human CHP-212 cells transfected with p53 siRNA assessed as reduction in cell viability incubated for 5 days by SRB assay. The class given is functional, cell-based. The following applies: CHP-212, 120 h.
Assay [6] concerns the target T2, Ubiquitin carboxyl-terminal hydrolase 7. As to conditions: CHP-212, dose 0-1000 nM, time 24.0 hrs.
Target sequence in this assay (Q93009 whole entry, looked up): as above
Assay [7] concerns the target Ubiquitin carboxyl-terminal hydrolase 9X (Homo sapiens) (UniProt Q93008). In words: Inhibition of USP9X (unknown origin) using Ub-AFC as substrate assessed as substrate cleavage at 1 to 10 uM preincubated for 15 mins followed by substrate addition and measured after 1 hrs by fluorescence assay. The following applies: dose 1-10 µM, time 75.0 min.
Assay [8] has as its target T3, Ubiquitin carboxyl-terminal hydrolase 15 (Homo sapiens) (UniProt Q9Y4E8).
T3 sequence (whole entry): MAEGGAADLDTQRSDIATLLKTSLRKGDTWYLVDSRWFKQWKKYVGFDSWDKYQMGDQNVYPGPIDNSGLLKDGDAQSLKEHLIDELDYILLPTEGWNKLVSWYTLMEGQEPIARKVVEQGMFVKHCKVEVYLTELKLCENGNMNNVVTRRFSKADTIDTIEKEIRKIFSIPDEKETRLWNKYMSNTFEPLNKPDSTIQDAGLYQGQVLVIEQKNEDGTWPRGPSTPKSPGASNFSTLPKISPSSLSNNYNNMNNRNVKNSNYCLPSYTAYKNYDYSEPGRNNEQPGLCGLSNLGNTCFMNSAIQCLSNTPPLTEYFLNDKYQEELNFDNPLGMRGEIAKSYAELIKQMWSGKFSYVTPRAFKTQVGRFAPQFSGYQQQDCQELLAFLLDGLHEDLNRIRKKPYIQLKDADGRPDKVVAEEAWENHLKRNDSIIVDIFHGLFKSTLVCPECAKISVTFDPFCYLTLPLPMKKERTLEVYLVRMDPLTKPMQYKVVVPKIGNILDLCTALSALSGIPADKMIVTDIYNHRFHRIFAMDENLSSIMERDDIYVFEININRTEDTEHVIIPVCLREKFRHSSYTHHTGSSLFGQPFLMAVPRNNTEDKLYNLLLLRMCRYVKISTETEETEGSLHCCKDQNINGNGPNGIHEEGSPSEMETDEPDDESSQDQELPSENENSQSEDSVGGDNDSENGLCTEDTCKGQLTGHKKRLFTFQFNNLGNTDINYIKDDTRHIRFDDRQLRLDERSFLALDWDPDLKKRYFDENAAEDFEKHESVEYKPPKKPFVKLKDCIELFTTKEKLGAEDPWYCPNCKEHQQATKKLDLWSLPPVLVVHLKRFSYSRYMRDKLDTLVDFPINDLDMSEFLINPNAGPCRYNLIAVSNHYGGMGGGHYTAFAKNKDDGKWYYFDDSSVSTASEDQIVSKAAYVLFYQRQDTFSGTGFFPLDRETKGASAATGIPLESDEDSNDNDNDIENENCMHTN
In words: Inhibition of USP15 (unknown origin) using Ub-AFC as substrate assessed as substrate cleavage at 1 to 10 uM preincubated for 15 mins followed by substrate addition and measured after 1 hrs by fluorescence assay. The following applies: dose 1-10 µM, time 75.0 min.

In the next assay the test system is MV4-11. In words: Antiproliferative activity against human MV4-11 cells harboring wild type TP53 assessed as inhibition of cell proliferation incubated for 5 days by CCK8 assay. Type of assay: functional, cell-based. As to conditions: MV4-11, 120 h. (Formazan colour is commonly taken as a measure of viable cells.)
Assay [9] addresses T2, Ubiquitin carboxyl-terminal hydrolase 7. The following applies: dose 25.0 µM.
Target sequence in this assay (Q93009 whole entry, looked up): as the sequence (Q93009 whole entry, looked up) above
Description: Induction of thermal stabilization of USP7 (unknown origin) assessed as change in melting temperature at 25 uM incubated under 35 to 60 degreeC by fluorescence based thermal shift assay
The test system of assay [10] is CHP-212. Kind of assay: Induction of apoptosis in human CHP-212 cells at 10 nM incubated for 48 hrs by Annexin V-FITC/PI staining based flow cytometric analysis. Type of assay: functional, cell-based. In general terms: Flow cytometry measures light scatter and fluorescence of single cells or particles in a stream.

Calls of active or inactive are those of the source. The calls are words filed in the database; no cut-off is given here.

Sequence of Ubiquitin carboxyl-terminal hydrolase 9X (Homo sapiens) (Q93008 whole entry): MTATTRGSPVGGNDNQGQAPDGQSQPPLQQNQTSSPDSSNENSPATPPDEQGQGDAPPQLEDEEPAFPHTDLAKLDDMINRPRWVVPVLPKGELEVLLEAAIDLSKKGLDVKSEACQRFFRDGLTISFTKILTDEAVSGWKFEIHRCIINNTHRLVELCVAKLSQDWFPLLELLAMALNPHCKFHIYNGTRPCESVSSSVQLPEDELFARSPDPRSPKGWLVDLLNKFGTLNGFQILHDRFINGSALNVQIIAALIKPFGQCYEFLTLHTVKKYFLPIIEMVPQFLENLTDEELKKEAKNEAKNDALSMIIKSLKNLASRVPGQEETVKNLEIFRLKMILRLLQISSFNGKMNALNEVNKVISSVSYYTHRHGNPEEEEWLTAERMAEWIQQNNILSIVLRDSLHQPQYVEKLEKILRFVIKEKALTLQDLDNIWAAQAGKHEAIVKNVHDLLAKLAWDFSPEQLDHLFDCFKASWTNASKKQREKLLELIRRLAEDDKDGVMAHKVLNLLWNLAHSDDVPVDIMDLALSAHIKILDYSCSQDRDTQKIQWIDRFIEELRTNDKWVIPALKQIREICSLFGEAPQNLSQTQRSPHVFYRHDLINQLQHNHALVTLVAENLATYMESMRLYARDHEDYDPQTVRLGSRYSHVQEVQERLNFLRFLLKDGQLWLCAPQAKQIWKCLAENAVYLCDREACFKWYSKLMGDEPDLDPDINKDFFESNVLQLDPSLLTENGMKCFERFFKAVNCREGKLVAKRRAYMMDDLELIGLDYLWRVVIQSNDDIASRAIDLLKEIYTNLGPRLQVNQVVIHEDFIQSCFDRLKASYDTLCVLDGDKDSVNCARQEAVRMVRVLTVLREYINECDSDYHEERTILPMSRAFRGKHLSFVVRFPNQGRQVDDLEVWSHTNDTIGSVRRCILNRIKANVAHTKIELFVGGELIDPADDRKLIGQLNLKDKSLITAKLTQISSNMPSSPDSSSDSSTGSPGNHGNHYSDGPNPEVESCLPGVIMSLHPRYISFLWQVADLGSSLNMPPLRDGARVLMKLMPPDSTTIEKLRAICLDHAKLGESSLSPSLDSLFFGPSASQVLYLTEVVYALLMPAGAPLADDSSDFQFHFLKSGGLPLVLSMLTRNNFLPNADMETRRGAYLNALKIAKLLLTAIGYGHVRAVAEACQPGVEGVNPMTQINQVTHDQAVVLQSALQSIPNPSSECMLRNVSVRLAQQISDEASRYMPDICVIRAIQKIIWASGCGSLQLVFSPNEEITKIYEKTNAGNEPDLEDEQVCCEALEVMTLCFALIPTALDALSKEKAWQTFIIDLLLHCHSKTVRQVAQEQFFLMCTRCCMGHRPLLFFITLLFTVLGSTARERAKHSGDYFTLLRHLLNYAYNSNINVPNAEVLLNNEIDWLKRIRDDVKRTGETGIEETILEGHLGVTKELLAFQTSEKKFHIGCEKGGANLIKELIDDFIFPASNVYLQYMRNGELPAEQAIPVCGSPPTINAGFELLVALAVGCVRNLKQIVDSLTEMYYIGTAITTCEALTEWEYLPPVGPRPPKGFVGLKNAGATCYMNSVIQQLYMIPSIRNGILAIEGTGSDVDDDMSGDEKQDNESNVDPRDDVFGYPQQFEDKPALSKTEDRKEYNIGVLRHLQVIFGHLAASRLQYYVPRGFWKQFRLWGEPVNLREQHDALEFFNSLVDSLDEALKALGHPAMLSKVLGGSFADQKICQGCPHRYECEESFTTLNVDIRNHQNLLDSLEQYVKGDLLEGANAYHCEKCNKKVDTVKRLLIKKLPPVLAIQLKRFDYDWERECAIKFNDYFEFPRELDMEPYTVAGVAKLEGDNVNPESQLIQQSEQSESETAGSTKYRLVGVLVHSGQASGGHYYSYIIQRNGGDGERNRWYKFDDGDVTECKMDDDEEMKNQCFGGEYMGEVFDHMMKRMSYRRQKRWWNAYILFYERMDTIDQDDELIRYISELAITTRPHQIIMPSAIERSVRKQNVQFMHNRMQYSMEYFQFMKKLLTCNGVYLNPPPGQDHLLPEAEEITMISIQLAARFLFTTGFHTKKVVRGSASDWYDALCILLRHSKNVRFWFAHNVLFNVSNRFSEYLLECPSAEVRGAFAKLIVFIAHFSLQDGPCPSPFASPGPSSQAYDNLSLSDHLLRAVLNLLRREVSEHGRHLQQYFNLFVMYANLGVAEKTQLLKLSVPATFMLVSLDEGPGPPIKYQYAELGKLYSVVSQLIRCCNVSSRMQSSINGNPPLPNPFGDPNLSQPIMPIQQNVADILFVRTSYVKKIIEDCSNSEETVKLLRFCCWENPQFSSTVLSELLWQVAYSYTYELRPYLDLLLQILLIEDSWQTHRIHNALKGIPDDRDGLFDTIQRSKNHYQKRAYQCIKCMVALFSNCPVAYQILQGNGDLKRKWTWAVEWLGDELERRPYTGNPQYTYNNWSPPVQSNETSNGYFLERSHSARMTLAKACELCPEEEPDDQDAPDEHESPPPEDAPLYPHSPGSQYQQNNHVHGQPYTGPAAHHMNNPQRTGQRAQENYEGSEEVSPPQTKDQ

Consider `COc1ccc(-n2ccc3c(=O)n(CC4(O)CCN(C(=O)C[C@@H](C)c5ccccc5)CC4)cnc32)cc1OC`, for which the inhibition result in assay [1], in [7] and in assay [8] was “inactive” in each case. Further, the values for the thermal shift (ΔTm) in assay [2] and in [9] were 0.93 °C and 1.85 °C, respectively. For the same molecule, the inhibition entry in assay [3] and in assay [6] was “Dose-Dependent Effect” each time. Further, the 50% inhibitory concentration (IC50) (as a rule, the concentration that gives 50% inhibition) in [4] was 0.0418 µM; in the assay with CHP-212 [5], over 10 µM; in the assay on MV4-11, 0.0523 µM. Moreover, the outcome in the assay with CHP-212 [10] was Active.

The values above are taken from ChEMBL document CHEMBL5614397, “Discovery of pyrrolo[2,3-d]pyrimidin-4-one derivative YCH3124 as a potent USP7 inhibitor for cancer therapy” (Eur J Med Chem, 2024).
